Data taken from patent US20220396577A1, “NOVEL SUBSTITUTED 1,3-8-TRIAZASPIRO[4,5] DECANE-2,4-DIONE COMPOUNDS AS INDOLEAMINE 2,3-DIOXYGENASE (IDO) AND/OR TRYPTOPHAN 2,3-DIOXYGENASE (TDO) INHIBITORS” (Merck Sharp & Dohme LLC, priority 2019, published 2022).

Key:
[1] = target: CLK2 (Homo sapiens, UniProt P49760); assay: Off-target kinase panel, ZLYTE: CLK2; assay type: biochemical; settings: read-out: Estimated IC50 (uM) CLK2
Description: (§1) The activity data was obtained in a panel of 265 and 264 for compounds 1-1 and CC-1, respectively, using the ZLYTE and ADAPTA assay methods indicated in the table below.
(§2) The ZLYTE biochemical assay employs a fluorescence-based, coupled-enzyme format and is based on the differential sensitivity of phosphorylated and non-phosphorylated peptides to proteolytic cleavage. The peptide substrate is labeled with two fluorophores—one at each end—that make up a Fluorescence Resonance Energy Transfer (FRET) pair.
(§3) In the primary reaction, the kinase transfers the gamma-phosphate of ATP to a single tyrosine, serine or threonine residue in a synthetic FRET-peptide. In the secondary reaction, a site-specific protease recognizes and cleaves non-phosphorylated FRET-peptides. Phosphorylation of FRET-peptides suppresses cleavage by the Development Reagent. […] A ratiometric method, which calculates the ratio (the Emission Ratio) of donor emission to acceptor emission after excitation of the donor fluorophore at 400 nm, is used to quantitate reaction progress, as shown in the equation below. […]
(§4) Both cleaved and uncleaved FRET-peptides contribute to the fluorescence signals and therefore to the Emission Ratio. The extent of phosphorylation of the FRET-peptide can be calculated from the Emission Ratio. […]
(§5) 10. Read on fluorescence plate reader and analyze the data.

[2] = target: RPS6KB1 (Homo sapiens, UniProt P23443); assay: Off-target kinase panel, ZLYTE: RPS6KB1; assay type: biochemical; settings: read-out: Estimated IC50 (uM) RPS6KB1
Description: as §1, §2, §3, §4, §5

[3] = target: CDK5/P25 (Homo sapiens, UniProt Q00535); assay: Off-target kinase panel, ZLYTE: CDK5/P25; assay type: biochemical; settings: read-out: Estimated IC50 (uM) CDK5/P25
Description: as §1, §2, §3, §4, §5

[4] = target: IDO1 (Homo sapiens, UniProt P14902); assay: IDO1 Human Whole Blood Assay (D); assay type: cell-based; set-up: from tissue; host or cells: human whole blood from healthy donors, stimulated with LPS and IFNγ; settings: LPS and IFNγ, 18 h, read-out: IDO WB IC50, nM (D)
Experimental: Compounds to be tested were serially diluted in ten 3-fold steps in DMSO starting from 10 mM. 3 μL of compound dilutions or DMSO alone were then dispensed from the dilution plate into a polypropylene 96-well assay plate containing 97 μL of RPMI using an Echo 555 acoustic liquid handler (Labcyte). LPS and IFNγ was prepared in RPMI to a 10× of final conc. (1000 ng/mL), final concentration is 100 ng/mL.
Human whole blood was drawn in sodium heparin coated tubes from healthy internal donors. 240 μL of blood was transferred to each of the wells of a v-bottom 96 well plate. 30 μL of a compound was transferred from intermediate dilution plate, and incubated for 15 min. 30 μL of the LPS and IFNγ solution prepared above was then transferred to a blood sample and mixed thoroughly. Plate was covered with breathable membrane and incubated at 37° C. for overnight (18 h).
On day 2 isotope labeled standard of kynurenine and tryptophan was made in water at 10× concentration and 30 μL was added to the blood sample at 3 μM final concentration. […] 20 μL of supernatant was carefully transferred to a 384 well plate contain 40 μL of 0.1% formic acid in water and analyzed by LC/MS/MS.
LC/MS/MS analyses were performed using Thermo Fisher's LX4-TSQ Quantum Ultra system. […] Compounds were titrated and IC50 values were calculated by 4 parameter sigmoidal curve fitting formula.

Chain of CDK5/P25 (Q00535 whole entry): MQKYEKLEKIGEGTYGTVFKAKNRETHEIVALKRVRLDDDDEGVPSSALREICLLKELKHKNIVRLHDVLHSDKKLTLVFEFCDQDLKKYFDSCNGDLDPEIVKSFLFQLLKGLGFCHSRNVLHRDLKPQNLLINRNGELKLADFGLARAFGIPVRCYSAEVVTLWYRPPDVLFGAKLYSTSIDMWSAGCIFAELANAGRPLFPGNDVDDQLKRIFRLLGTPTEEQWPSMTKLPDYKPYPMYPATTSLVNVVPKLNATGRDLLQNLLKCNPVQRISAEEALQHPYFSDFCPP
Chain of CDK5/P25 (Q15078 99-307 partner limits assumed): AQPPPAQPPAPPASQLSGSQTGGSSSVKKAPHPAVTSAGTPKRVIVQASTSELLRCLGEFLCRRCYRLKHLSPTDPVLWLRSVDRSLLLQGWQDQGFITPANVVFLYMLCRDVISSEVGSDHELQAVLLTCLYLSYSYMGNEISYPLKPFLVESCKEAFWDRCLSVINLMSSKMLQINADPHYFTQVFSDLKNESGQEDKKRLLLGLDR
Chain of IDO1 (P14902 whole entry): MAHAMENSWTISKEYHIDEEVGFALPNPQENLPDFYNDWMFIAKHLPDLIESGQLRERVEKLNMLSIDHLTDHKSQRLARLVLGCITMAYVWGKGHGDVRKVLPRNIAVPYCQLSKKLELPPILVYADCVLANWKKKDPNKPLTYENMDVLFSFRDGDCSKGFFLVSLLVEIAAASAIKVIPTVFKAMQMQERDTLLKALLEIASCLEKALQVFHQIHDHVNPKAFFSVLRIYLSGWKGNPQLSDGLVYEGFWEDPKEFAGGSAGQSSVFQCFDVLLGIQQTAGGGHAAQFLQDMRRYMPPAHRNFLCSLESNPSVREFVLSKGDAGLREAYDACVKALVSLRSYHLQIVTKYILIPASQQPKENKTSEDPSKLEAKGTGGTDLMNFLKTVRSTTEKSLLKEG
Chain of CLK2 (P49760 whole entry): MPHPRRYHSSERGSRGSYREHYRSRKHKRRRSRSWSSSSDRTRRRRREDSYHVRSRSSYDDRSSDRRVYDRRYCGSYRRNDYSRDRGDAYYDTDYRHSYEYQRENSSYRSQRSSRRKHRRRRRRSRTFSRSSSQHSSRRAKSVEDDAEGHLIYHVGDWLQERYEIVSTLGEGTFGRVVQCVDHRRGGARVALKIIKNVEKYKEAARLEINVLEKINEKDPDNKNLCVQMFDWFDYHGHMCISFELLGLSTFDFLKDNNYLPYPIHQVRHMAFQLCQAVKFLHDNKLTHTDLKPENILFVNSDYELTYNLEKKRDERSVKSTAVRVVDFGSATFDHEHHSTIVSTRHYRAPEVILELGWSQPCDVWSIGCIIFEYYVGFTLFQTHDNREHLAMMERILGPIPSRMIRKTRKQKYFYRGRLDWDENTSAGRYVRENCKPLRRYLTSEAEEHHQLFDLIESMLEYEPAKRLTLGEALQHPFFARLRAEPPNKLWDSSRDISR
Chain of RPS6KB1 (P23443 whole entry): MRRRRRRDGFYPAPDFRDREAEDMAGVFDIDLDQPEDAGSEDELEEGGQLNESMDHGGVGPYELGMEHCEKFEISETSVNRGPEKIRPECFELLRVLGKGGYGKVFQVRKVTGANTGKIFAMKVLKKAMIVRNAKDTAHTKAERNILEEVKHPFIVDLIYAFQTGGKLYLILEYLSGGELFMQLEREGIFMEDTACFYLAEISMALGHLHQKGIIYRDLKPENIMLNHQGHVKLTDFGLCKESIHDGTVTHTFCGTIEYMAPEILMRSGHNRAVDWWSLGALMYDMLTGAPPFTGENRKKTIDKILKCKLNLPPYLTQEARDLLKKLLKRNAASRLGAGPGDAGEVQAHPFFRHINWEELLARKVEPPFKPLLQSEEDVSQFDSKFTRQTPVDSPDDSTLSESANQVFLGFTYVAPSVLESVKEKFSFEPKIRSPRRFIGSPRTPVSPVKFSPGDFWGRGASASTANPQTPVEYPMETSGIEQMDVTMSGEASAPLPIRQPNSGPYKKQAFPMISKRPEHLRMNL

Row | IC50 [1] | IC50 [2] | IC50 [3] | IC50 [4] | SMILES
1 | 0.73 µM | 1.9 µM | > 2 µM | 345 nM | C[C@@H]1CN(c2cc(Br)cc3[nH]ncc23)CC[C@]12NC(=O)NC2=O (single isomer, unassigned) [Compound 1-1]
2 | 0.35 µM | 1.7 µM | 1.2 µM | 556 nM | O=C1NC(=O)C2(CCN(c3cc(Cl)cc4[nH]ncc34)CC2)N1 [CC-1]
